Laboratory results reported in the NIST ThermoML archive (doi:10.1021/je800842z).
± gives the expanded uncertainty stated by the source.

What was measured:
[1] = 293.15 K; 101.33 kPa; Liquid; Pycnometric method
[2] = refractive index (Na D-line) (dimensionless); settings: 293.15 K; 101.33 kPa; Liquid; Standard Abbe refractometry

mass density [1] [kg/m3] | refractive index [2] | Compound
879 ± 1 | 1.5011 ± 0.0004 | c1ccccc1 [benzene]
900 ± 1 | 1.3588 ± 0.0004 | CCOC(C)=O [ethyl acetate]

Compound | mass density [1] [kg/m3] | refractive index [2]
Cc1ccccc1 [toluene] | 866 ± 1 | 1.4967 ± 0.0004
